In US12331040B2 (Karyopharm Therapeutics Inc., priority 2013, dated 2025):
Read-outs that look alike come from different tables or passages of the source.

What was measured:
Assay in all cases: MTT cell proliferation assay
Type in all cases: cell-based
[1] = tested on: Z138 cells; conditions: Homo sapiens, Z-138, Z138 cells, approximately 64-72 hours incubation
How it was run: (§1)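 5,000-10,000 cells/well, overnight attach; 8 conc., 1 nM–30 μM; MTT ~4 h; formazan solubilized, OD 490 nm; % inhibition = (1−(ODo/OD))×100 vs neg. control; mostly duplicate, mean±SE.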

[2] = tested on: MS751 cells; conditions: Homo sapiens, MS751, MS751 cells, approximately 64-72 hours incubation
How it was run: as §1

[3] = tested on: 3T3 cells; conditions: Mus musculus, NIH3T3, approximately 64-72 hours incubation
How it was run: as §1

[4] = read-out: MTT Assay IC50, Z-138
[5] = read-out: MTT Assay IC50, MS-751
[6] = read-out: MTT Assay IC50 MS-751

| SMILES | IC50 [1, 4] [nM] | IC50 [2, 5] [µM] | IC50 ([3]; read-out: MTT Assay IC50, 3T3) [µM] | IC50 ([1]; read-out: MTT Assay IC50 Z-138) [nM] | IC50 [2, 6] [µM] | IC50 ([3]; read-out: MTT Assay IC50 3T3) [µM] |
| --- | --- | --- | --- | --- | --- | --- |
| Nc1ccc(/C=C/C(=O)NCc2cc3cc(-c4ccc(C(=O)N5CCC(F)(F)CC5)cn4)c(F)c(F)c3o2)cn1 [Compound 681, (E)-3-(6-aminopyridin-3-yl)-N-((5-(5-(4,4-difluoropiperidine-1-carbonyl)pyridin-2-yl)-6,7-difluorobenzofuran-2-yl)methyl)acrylamide] | 5000 to 10000 | > 10 | > 10 |  |  |  |
| Cc1noc(-c2ccc(F)cc2)c1-c1cc(C(F)(F)F)c2oc(CNC(=O)/C=C/c3ccc(N)nc3)cc2c1 [Compound 648, (E)-3-(6-aminopyridin-3-yl)-N-((5-(5-(4-fluorophenyl)-3-methylisoxazol-4-yl)-7-(trifluoromethyl)benzofuran-2-yl)methyl)acrylamide] |  |  |  | 100 to 5000 | 0.1 to 5 | > 10 |
| COc1cc(-c2ccc(C(=O)N3CCNCC3)cc2)cc2cc(CNC(=O)/C=C/c3ccc(N)nc3)oc12 [Compound 637, (E)-3-(6-aminopyridin-3-yl)-N-((7-methoxy-5-(4-(piperazine-1-carbonyl)phenyl)benzofuran-2-yl)methyl)acrylamide] |  |  |  | 100 to 5000 | 0.1 to 5 | > 10 |
| Nc1ccc(/C=C/C(=O)NCc2cc3cc(-c4ccc(OC(=O)N5CCOCC5)cc4)cc(Cl)c3o2)cn1 [Compound 556, (E)-4-(2-((3-(6-aminopyridin-3-yl)acrylamido)methyl)-7-chlorobenzofuran-5-yl)phenyl morpholine-4-carboxylate] |  |  |  | 100 to 5000 | 0.1 to 5 | > 10 |
| Nc1ccc(/C=C/C(=O)NCc2cc3cc(-c4ccc(C(=O)N5CCC(F)(F)CC5)cc4)cc(OC(F)(F)F)c3o2)cn1 [Compound 686, (E)-3-(6-aminopyridin-3-yl)-N-((5-(4-(4,4-difluoropiperidine-1-carbonyl)phenyl)-7-(trifluoromethoxy)benzofuran-2-yl)methyl)acrylamide] | 100 to 5000 | 0.1 to 5 | > 10 |  |  |  |
| Nc1ccc(/C=C/C(=O)NCc2cc3cc(-c4ccc(C(=O)N5CCC(F)(F)CC5)cc4)cc(-c4cc(F)ccc4F)c3o2)cn1 [Compound 740, (E)-3-(6-aminopyridin-3-yl)-N-((7-(2,5-difluorophenyl)-5-(4-(4,4-difluoropiperidine-1-carbonyl)phenyl)benzofuran-2-yl)methyl)acrylamide] | < 100 | < 0.1 | 0.1 to 5 |  |  |  |
| CN1CCN(C(=O)c2ccc(-c3cc(C(F)(F)F)c4oc(CNC(=O)/C=C/c5ccc(N)nc5)cc4c3)nc2)CC1 [Compound 565, (E)-3-(6-aminopyridin-3-yl)-N-((5-(5-(4-methylpiperazine-1-carbonyl)pyridin-2-yl)-7-(trifluoromethyl)benzofuran-2-yl)methyl)acrylamide] |  |  |  | < 100 | < 0.1 | 0.1 to 5 |
| Nc1ccc(/C=C/C(=O)NCc2cc3cc(-c4ccc(S(=O)(=O)N5CC[C@@H](F)C5)cc4)cc(Cl)c3o2)cn1 [Compound 527, (R,E)-3-(6-aminopyridin-3-yl)-N-((7-chloro-5-(4-(3-fluoropyrrolidin-1-ylsulfonyl)phenyl)benzofuran-2-yl)methyl)acrylamide] |  |  |  | 100 to 5000 | 0.1 to 5 | > 10 |
| CC1(O)CN(C(=O)c2ccc(-c3cc(C(F)(F)F)c4oc(CNC(=O)/C=C/c5ccc(N)nc5)cc4c3)nc2)C1 [Compound 621, (E)-3-(6-aminopyridin-3-yl)-N-((5-(5-(3-hydroxy-3-methylazetidine-1-carbonyl)pyridin-2-yl)-7-(trifluoromethyl)benzofuran-2-yl)methyl)acrylamide] |  |  |  | 100 to 5000 | 0.1 to 5 | > 10 |
| Nc1ccc(/C=C/C(=O)NCc2cc3cc(-c4ccc(C(=O)C(=O)N5CCOCC5)cc4)cc(Cl)c3o2)cn1 [Compound 545, (E)-3-(6-Aminopyridin-3-yl)-N-((7-chloro-5-(4-(2-morpholino-2-oxoacetyl)phenyl)benzofuran-2-yl)methyl)acrylamide] |  |  |  | 100 to 5000 | 0.1 to 5 | 5 to 10 |
| Nc1ccc(/C=C/C(=O)NCc2cc3cc(-c4ccc(C(=O)N5CCC(F)(F)CC5)cc4)cc(-c4ccncc4)c3o2)cn1 [Compound 722, (E)-3-(6-aminopyridin-3-yl)-N-((5-(4-(4,4-difluoropiperidine-1-carbonyl)phenyl)-7-(pyridin-4-yl)benzofuran-2-yl)methyl)acrylamide] | < 100 | < 0.1 | 0.1 to 5 |  |  |  |
| Nc1ccc(/C=C/C(=O)NCc2cc3cc(-c4ccc(C(=O)N5CCCCC5)cc4)cc(Cl)c3o2)cn1 [Compound 600, (E)-3-(6-aminopyridin-3-yl)-N-((7-chloro-5-(4-(piperidine-1-carbonyl)phenyl)benzofuran-2-yl)methyl)acrylamide] |  |  |  | 100 to 5000 | 5 to 10 | > 10 |
| Nc1ccc(/C=C/C(=O)NCc2cc3cc(-c4ccc(C(=O)N5CCCOCC5)cc4)cc(C(F)(F)F)c3o2)cn1 [Compound 574, (E)-N-((5-(4-(1,4-oxazepane-4-carbonyl)phenyl)-7-(trifluoromethyl)benzofuran-2-yl)methyl)-3-(6-aminopyridin-3-yl)acrylamide] |  |  |  | 100 to 5000 | 0.1 to 5 | > 10 |
| Nc1ccc(/C=C/C(=O)NCc2cc3cc(-c4ccc(C(=O)N5CCC(F)(F)C5)cn4)cc(C(F)(F)F)c3o2)cn1 [Compound 612, (E)-3-(6-aminopyridin-3-yl)-N-((5-(5-(3,3-difluoropyrrolidine-1-carbonyl)pyridin-2-yl)-7-(trifluoromethyl)benzofuran-2-yl)methyl)acrylamide] |  |  |  | < 100 | 0.1 to 5 | > 10 |
| CN1C(=O)c2ccc(-c3cc(Cl)c4oc(CNC(=O)/C=C/c5ccc(N)nc5)cc4c3)cc2C1=O [Compound 514, (E)-3-(6-aminopyridin-3-yl)-N-((7-chloro-5-(2-methyl-1,3-dioxoisoindolin-5-yl)benzofuran-2-yl)methyl)acrylamide] |  |  |  | 100 to 5000 | 5 to 10 | > 10 |
| Nc1ccc(/C=C/C(=O)NCc2cc3cc(-c4ncc(C(=O)N5CCC(F)(F)CC5)cn4)cc(C(F)(F)F)c3o2)cn1 [Compound 652, (E)-3-(6-aminopyridin-3-yl)-N-((5-(5-(4,4-difluoropiperidine-1-carbonyl)pyrimidin-2-yl)-7-(trifluoromethyl)benzofuran-2-yl)methyl)acrylamide] |  |  |  | 100 to 5000 | 0.1 to 5 | > 10 |
| Cc1c(CNC(=O)/C=C/c2ccc(N)nc2)oc2c(C(F)(F)F)cc(-c3ccc(C(=O)N4CCC(F)(F)CC4)cn3)cc12 [Compound 677, (E)-3-(6-aminopyridin-3-yl)-N-((5-(5-(4,4-difluoropiperidine-1-carbonyl)pyridin-2-yl)-3-methyl-7-(trifluoromethyl)benzofuran-2-yl)methyl)acrylamide] | > 10000 | > 10 | > 10 |  |  |  |
| Nc1ccc(/C=C/C(=O)NCc2cc3ccc(-c4ccc(C(=O)N5CCC(F)(F)CC5)cn4)cc3o2)cn1 [Compound 718, (E)-3-(6-Aminopyridin-3-yl)-N-((6-(5-(4,4-difluoropiperidine-1-carbonyl)pyridin-2-yl)benzofuran-2-yl)methyl)acrylamide] | 100 to 5000 | 0.1 to 5 | > 10 |  |  |  |
